Results as given in patent publication US11648253B2, “Thienopyrimidinone NMDA receptor modulators and uses thereof” (Novartis AG, priority 2015, dated 2023).

Each compound was assayed against T1, NMDA receptor (GRIN1 / GRIN2B, NR2B) expressed in HEK293 cells (Homo sapiens, UniProt Q05586+Q13224) (assay: Reversal of Ro 25-6981-mediated suppression of Ca2+ response (fluo-8 fluorescence, FDSS) in HEK293 cells expressing GRIN1/GRIN2B). Settings: % reversal of Ro 25-6981 suppression of co-agonist (glutamate/glycine) Ca2+ response, test concentration not given.
T1 construct: host or cells: HEK293
T1 sequence (Q13224 27-1484, other chains not shown): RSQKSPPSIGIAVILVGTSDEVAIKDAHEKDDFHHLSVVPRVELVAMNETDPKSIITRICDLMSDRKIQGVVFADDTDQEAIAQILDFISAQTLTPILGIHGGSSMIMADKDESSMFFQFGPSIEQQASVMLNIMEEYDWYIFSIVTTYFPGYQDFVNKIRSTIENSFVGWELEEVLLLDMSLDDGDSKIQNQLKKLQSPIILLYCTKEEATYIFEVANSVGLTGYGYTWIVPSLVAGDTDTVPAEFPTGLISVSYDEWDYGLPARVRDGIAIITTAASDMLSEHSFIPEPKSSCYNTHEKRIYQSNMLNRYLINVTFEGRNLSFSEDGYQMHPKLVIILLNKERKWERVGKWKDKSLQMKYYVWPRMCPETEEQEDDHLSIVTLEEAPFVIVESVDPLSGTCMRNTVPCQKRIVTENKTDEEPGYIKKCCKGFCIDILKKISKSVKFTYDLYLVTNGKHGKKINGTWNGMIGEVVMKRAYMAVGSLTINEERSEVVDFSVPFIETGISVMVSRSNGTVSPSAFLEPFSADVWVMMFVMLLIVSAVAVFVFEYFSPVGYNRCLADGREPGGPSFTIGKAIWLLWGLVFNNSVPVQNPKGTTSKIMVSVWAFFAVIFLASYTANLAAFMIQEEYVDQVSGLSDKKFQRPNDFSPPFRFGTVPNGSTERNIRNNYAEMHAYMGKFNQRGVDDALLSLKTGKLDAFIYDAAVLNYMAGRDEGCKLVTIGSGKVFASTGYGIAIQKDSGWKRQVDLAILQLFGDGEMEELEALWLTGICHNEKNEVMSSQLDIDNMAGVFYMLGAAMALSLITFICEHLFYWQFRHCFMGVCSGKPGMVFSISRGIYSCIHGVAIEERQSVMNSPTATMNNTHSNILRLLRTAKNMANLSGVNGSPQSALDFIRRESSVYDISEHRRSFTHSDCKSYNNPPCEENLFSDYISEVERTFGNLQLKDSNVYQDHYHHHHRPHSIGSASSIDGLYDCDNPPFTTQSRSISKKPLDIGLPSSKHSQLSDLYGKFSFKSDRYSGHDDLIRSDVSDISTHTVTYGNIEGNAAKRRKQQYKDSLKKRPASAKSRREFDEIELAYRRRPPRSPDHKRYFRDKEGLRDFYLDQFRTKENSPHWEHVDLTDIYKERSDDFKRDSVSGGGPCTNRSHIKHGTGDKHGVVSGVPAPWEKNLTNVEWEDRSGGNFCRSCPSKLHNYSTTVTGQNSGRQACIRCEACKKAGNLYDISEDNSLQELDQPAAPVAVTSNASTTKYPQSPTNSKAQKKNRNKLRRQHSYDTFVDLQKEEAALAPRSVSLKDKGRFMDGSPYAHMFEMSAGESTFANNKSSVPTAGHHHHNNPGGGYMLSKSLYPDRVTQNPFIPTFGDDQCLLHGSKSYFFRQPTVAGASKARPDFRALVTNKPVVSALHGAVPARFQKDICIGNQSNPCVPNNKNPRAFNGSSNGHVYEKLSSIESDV
Type: cell-based
Method: HEK293 cells with constructs conferring stable expression of the GRIN1 gene and tetracycline-inducible expression of the GRIN2B gene (Chantest, Cleveland, Ohio) are grown to ˜75% confluence in tissue culture flasks at 37° C., 5% CO2. NR2B expression is induced by overnight incubation with 0.3-0.4 μg/ml tetracycline in the presence of 2.5 mM ARL-15896 at 37° C., followed by moving to 30° C. for 3-5 hours. Cells are next harvested using TripleExpressm (Life Technologies, Carlsbad, Calif.) according to the manufacturer's instructions, first removing culture medium, rinsing with Dulbecco's phosphate buffered saline (Ca^2+ and Mg^2+-free), and then adding the TripleExpressm reagent. Harvested cells are spun down, washed twice in Ca^2+- and Mg^2+-free Hank's Balanced Salt Solution with 20 mM HEPES and 10 mM glucose, pH 7.4 (HHnoCa solution), and counted with viability assessed using Trypan Blue. Cells are loaded with fluo-8 Ca^2+-sensitive dye in HHnoCa solution according to the manufacturer's directions (AAT Bioquest, Sunnyvale, Calif.), incubating at 37° C. for 20 minutes followed by 25 minutes at 22-25° C. After a wash in HHnoCa to remove extracellular dye, cells are resuspended in HHnoCa and plated at […] cells per well in a volume of 25 μl/well in 384 well black-wall, clear bottom plates (Hamamatsu, Middlesex, N.J.). Plates are then centrifuged to create a monolayer in the wells and stored in the dark until used.
Prior to analysis, compound plates are prepared with each compound at 6× the final desired concentration. From stock solutions at 10 mM in 100% DMSO, compounds are spotted in the desired amounts using an ECHO liquid handler (Labcyte, Sunnyvale, Calif.) into wells of a 384-well plate and then diluted with 50 μl of HHnoCa containing 750 nM Ro 25-6981 and 120 μM 5,7-dichlorokynurenic acid (both purchased from Tocris Bioscience (Bristol, England) and maintained as 10 mM stock solutions in 100% DMSO). To insure complete compound dissolution, these plates are then placed in an orbital shaker for at least one hour. Also prepared prior to the assay is a co-agonist plate containing HHnoCa with 240 μM glutamate, 2.4 mM glycine, and 7.2 mM CaCl2, which is 2.4× the desired final concentration of each reagent. Both the compound plate and co-agonist plate are 384-well polypropylene plates from Thermo Fisher Scientific, Waltham, Mass.
The assay is performed by first adding 10 μl solution from each well of the compound plate described above to the cell plate using a CyBiWell liquid handler (Analytik Jena AG, Jena, Germany), followed by 10 minutes pre-incubation in the dark. Cell plates are then loaded onto a Hamamatsu FDSS 6000 plate reader. After a 30-second baseline, 25 μl is added to each well from the co-agonist plate, and the fluorescence signal is recorded for another 2 minutes. FDSS software applies shading and autofluorescence correction, and resultant raw fluorescence measurements are exported in the form of a fluorescence ratio for each well to its own reading at time zero in the experiment. In each plate, negative control wells consist of wells where Ro 25-6981 and 5,7 dichlorokynurenic acid are present and co-agonist is applied in the absence of any added assay compound. Under these conditions, the Ca^2+ response to co-agonist is suppressed. Positive control wells also present in each plate contain 5,7 dichlorokynurenic acid but no Ro 25-6981, so that co-agonist addition results in a large Ca^2+ response. Compounds tested are evaluated on the basis of their ability to reverse the suppression of the Ca^2+ response mediated by Ro 25-6981, which is quantified as % reversal=100*(R−Rneg)/(Rpos−Rneg) where R is the fluorescence ratio for the test compound at the end of the experiment and Rneg and Rpos are the end ratios for the negative and positive controls, respectively. […]
With O=C(Cn1cnc2scc(-c3ccc(Cl)cc3)c2c1=O)N1CCC1 [Example 1, 3-[2-(azetidin-1-yl)-2-oxoethyl]-5-(4-chlorophenyl)-3H,4H-thieno[2,3-d]pyrimidin-4-one] the “Avg Response Recovered (%)” value was 2%.
With O=C(Cn1cnc2scc(-c3ccc(Cl)cc3)c2c1=O)N1CC(F)(F)C1 [Example 2, 5-(4-chlorophenyl)-3-[2-(3,3-difluoroazetidin-1-yl)-2-oxoethyl]-3H,4H-thieno[2,3-d]pyrimidin-4-one] the “Avg Response Recovered (%)” value was 7%.
O=C(Cn1cnc2scc(-c3ccc(Cl)cc3)c2c1=O)N1CC2(COC2)C1 [Example 3, 5-(4-chlorophenyl)-3-(2-{2-oxa-6-azaspiro[3.3]heptan-6-yl}-2-oxoethyl)-3H,4H-thieno[2,3-d]pyrimidin-4-one] was tested, and the “Avg Response Recovered (%)” value was 0%.
With COC1CN(C(=O)Cn2cnc3scc(-c4ccc(Cl)cc4)c3c2=O)C1 [Example 4, 5-(4-chlorophenyl)-3-[2-(3-methoxyazetidin-1-yl)-2-oxoethyl]-3H,4H-thieno[2,3-d]pyrimidin-4-one] the “Avg Response Recovered (%)” value was 1%.
In the case of O=C(Cn1cnc2scc(-c3ccc(C(F)(F)F)cc3)c2c1=O)N1CC(F)(F)C1 [Example 5, 3-[2-(3,3-difluoroazetidin-1-yl)-2-oxoethyl]-5-[4-(trifluoromethyl)phenyl]-3H,4H-thieno[2,3-d]pyrimidin-4-one], the “Avg Response Recovered (%)” value was 11%.
O=C(Cn1cnc2scc(-c3ccc(Cl)c(C(F)(F)F)c3)c2c1=O)N1CC(F)(F)C1 [Example 6, 5-[4-chloro-3-(trifluoromethyl)phenyl]-3-[2-(3,3-difluoroazetidin-1-yl)-2-oxoethyl]-3H,4H-thieno[2,3-d]pyrimidin-4-one] was tested, and the “Avg Response Recovered (%)” value was 62%.
For O=C(Cn1cnc2scc(-c3ccc(F)cc3)c2c1=O)N1CC(F)(F)C1 [Example 7, 3-[2-(3,3-difluoroazetidin-1-yl)-2-oxoethyl]-5-(4-fluorophenyl)-3H,4H-thieno[2,3-d]pyrimidin-4-one], the “Avg Response Recovered (%)” value was 6%.
Cc1ccc(-c2csc3ncn(CC(=O)N4CC(F)(F)C4)c(=O)c23)cc1 [Example 8, 3-[2-(3,3-difluoroazetidin-1-yl)-2-oxoethyl]-5-(4-methylphenyl)-3H,4H-thieno[2,3-d]pyrimidin-4-one] was tested, and the “Avg Response Recovered (%)” value was 5%.
With O=C(Cn1cnc2scc(-c3ccc(F)c(Cl)c3)c2c1=O)N1CC(F)(F)C1 [Example 9, 5-(3-chloro-4-fluorophenyl)-3-[2-(3,3-difluoroazetidin-1-yl)-2-oxoethyl]-3H,4H-thieno[2,3-d]pyrimidin-4-one] the “Avg Response Recovered (%)” value was 49%.
For O=C(Cn1cnc2scc(-c3ccc(Cl)c(Cl)c3)c2c1=O)N1CC(F)(CF)C1 [Example 10, 5-(3,4-dichlorophenyl)-3-{2-[3-fluoro-3-(fluoromethyl)azetidin-1-yl]-2-oxoethyl}-3H,4H-thieno[2,3-d]pyrimidin-4-one], the “Avg Response Recovered (%)” value was 121%.
With CC1(F)CN(C(=O)Cn2cnc3scc(-c4ccc(Cl)c(Cl)c4)c3c2=O)C1 [Example 11, 5-(3,4-dichlorophenyl)-3-[2-(3-fluoro-3-methylazetidin-1-yl)-2-oxoethyl]-3H,4H-thieno[2,3-d]pyrimidin-4-one] the “Avg Response Recovered (%)” value was 152%.
For CCC1(F)CN(C(=O)Cn2cnc3scc(-c4ccc(F)c(Cl)c4)c3c2=O)C1 [Example 12, 5-(3-chloro-4-fluorophenyl)-3-[2-(3-ethyl-3-fluoroazetidin-1-yl)-2-oxoethyl]-3H,4H-thieno[2,3-d]pyrimidin-4-one], the “Avg Response Recovered (%)” value was 149%.
In the case of O=C(Cn1cnc2scc(-c3ccc(F)c(Cl)c3)c2c1=O)N1CC(F)(CF)C1 [Example 13, 5-(3-chloro-4-fluorophenyl)-3-{2-[3-fluoro-3-(fluoromethyl)azetidin-1-yl]-2-oxoethyl}-3H,4H-thieno[2,3-d]pyrimidin-4-one], the “Avg Response Recovered (%)” value was 141%.
In the case of CC1(F)CN(C(=O)Cn2cnc3scc(-c4ccc(F)c(Cl)c4)c3c2=O)C1 [Example 14, 5-(3-chloro-4-fluorophenyl)-3-[2-(3-fluoro-3-methylazetidin-1-yl)-2-oxoethyl]-3H,4H-thieno[2,3-d]pyrimidin-4-one], the “Avg Response Recovered (%)” value was 165%.
For CCC1(F)CN(C(=O)Cn2cnc3scc(-c4ccc(Cl)c(Cl)c4)c3c2=O)C1 [Example 15, 5-(3,4-dichlorophenyl)-3-[2-(3-ethyl-3-fluoroazetidin-1-yl)-2-oxoethyl]-3H,4H-thieno[2,3-d]pyrimidin-4-one], the “Avg Response Recovered (%)” value was 103%.
O=C(Cn1cnc2sc(-c3ccc(Cl)cc3)cc2c1=O)N1CCC1 [Example 16, 3-[2-(azetidin-1-yl)-2-oxoethyl]-6-(4-chlorophenyl)-3H,4H-thieno[2,3-d]pyrimidin-4-one] was tested, and the “Avg Response Recovered (%)” value was 23%.
With COC1CN(C(=O)Cn2cnc3sc(-c4ccc(Cl)cc4)cc3c2=O)C1 [Example 17, 6-(4-chlorophenyl)-3-[2-(3-methoxyazetidin-1-yl)-2-oxoethyl]-3H,4H-thieno[2,3-d]pyrimidin-4-one] the “Avg Response Recovered (%)” value was 24%.
For Cc1sc2ncn(CC(=O)N3CC(F)(F)C3)c(=O)c2c1-c1ccc(Cl)cc1 [Example 18, 5-(4-chlorophenyl)-3-[2-(3,3-difluoroazetidin-1-yl)-2-oxoethyl]-6-methyl-3H,4H-thieno[2,3-d]pyrimidin-4-one], the “Avg Response Recovered (%)” value was 11%.
In the case of Cc1nc2scc(-c3ccc(Cl)cc3)c2c(=O)n1CC(=O)N1CC(F)(F)C1 [Example 19, 5-(4-chlorophenyl)-3-[2-(3,3-difluoroazetidin-1-yl)-2-oxoethyl]-2-methyl-3H,4H-thieno[2,3-d]pyrimidin-4-one], the “Avg Response Recovered (%)” value was 5%.
For O=C(CCn1cnc2scc(-c3ccc(Cl)c(C(F)(F)F)c3)c2c1=O)N1CC(F)(F)C1 [Example 20, 5-[4-chloro-3-(trifluoromethyl)phenyl]-3-[3-(3,3-difluoroazetidin-1-yl)-3-oxopropyl]-3H,4H-thieno[2,3-d]pyrimidin-4-one], the “Avg Response Recovered (%)” value was −1%.
O=C(Cn1c(C(F)(F)F)nc2scc(-c3ccc(Cl)cc3)c2c1=O)N1CC(F)(F)C1 [Example 21, 5-(4-chlorophenyl)-3-[2-(3,3-difluoroazetidin-1-yl)-2-oxoethyl]-2-(trifluoromethyl)-3H,4H-thieno[2,3-d]pyrimidin-4-one] was tested, and the “Avg Response Recovered (%)” value was 0%.
